Laboratory results as given in patent publication US20250388605A1, “HETEROBIFUNCTIONAL COMPOUNDS AND METHODS OF TREATING DISEASE” (Halda Therapeutics OpCo, Inc., priority 2022, published 2025).
pIC50: −log10 of the molar value.

How the values were obtained:
[1] = tested on: T-Rex 293 cell line SC3 cells having increased expression of androgen receptor protein due to exposure to doxycycline; test: Cellular growth inhibition, T-Rex 293 SC3 cells with doxycycline (increased androgen receptor expression), CellTiter-Glo; type: cell-based; settings: T-Rex 293 SC3 cells with 10 ng/mL doxycycline (increased androgen receptor expression), 72 hours, CellTiter-Glo 2.0
Procedure, shortened: (§1)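 Growth inhibition is measured in an inducible AR-expressing T-Rex 293 clone, SC3, cultured with or without 10 ng/mL doxycycline in hormone-depleted medium. Test compounds are applied for 72 hours. GI50 values derive from CellTiter-Glo 2.0 signal fitted by four-parameter regression.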

[2] = tested on: T-Rex 293 cell line SC3 cells lacking increased expression of androgen receptor protein; test: Cellular growth inhibition, T-Rex 293 SC3 cells without doxycycline (no increased androgen receptor expression), CellTiter-Glo; type: cell-based; settings: T-Rex 293 SC3 cells not exposed to doxycycline (no increased androgen receptor expression), 72 hours
Procedure, shortened: as §1

[3] = tested on: VCaP cells; test: Cellular growth inhibition assay for VCaP cells, CellTiter-Glo; type: cell-based, human; settings: 72 hours
Procedure, shortened: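 GI50 values come from four-parameter curve fits of luminescence data normalized to a zero baseline. Compound, in medium with 0.5% DMSO, was added one day after plating and left for 72 h before CellTiter-Glo 2.0 addition.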

[4] = tested on: T47D cells; test: Cellular Growth Inhibition Assay for T47D Cells (CellTiter-Glo); type: cell-based, human; settings: 72 hours
Procedure, shortened: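 GI50 values derive from four-parameter regression of CellTiter-Glo 2.0 luminescence, using zero luminescence as baseline. Human breast cancer T47D cells (3000/well; DMEM, 10% FBS, 0.2 units/mL insulin) were exposed for 72 h to compound dilutions at 0.5% DMSO, with dosing starting 24 h after seeding.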

[5] = biological target: T1, progesterone receptor ligand binding domain (GST-tagged PR LBD) (Homo sapiens, UniProt P06401); test: FP Assay for Binding Affinity to Progesterone Receptor (PolarScreen Progesterone Receptor Competitor Assay Kit); settings: fluorescence polarization, Fluormone tracer, 2 hours at room temperature
T1 construct: purchased Life Technologies A15905 or a15906
T1 sequence (P06401 679-913 limits assumed): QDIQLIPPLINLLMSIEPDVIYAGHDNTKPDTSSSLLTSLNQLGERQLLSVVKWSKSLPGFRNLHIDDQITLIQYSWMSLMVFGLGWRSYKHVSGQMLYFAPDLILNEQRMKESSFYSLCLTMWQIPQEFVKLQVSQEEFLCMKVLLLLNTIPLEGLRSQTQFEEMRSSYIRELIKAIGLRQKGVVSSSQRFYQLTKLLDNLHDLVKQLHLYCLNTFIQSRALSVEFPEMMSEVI
Procedure: Exemplary compounds were tested for ability to bind to the progesterone receptor ligand binding domain (LBD).
Compounds were tested using the PolarScreen™ Progesterone Receptor Competitor Assay Kit (Life Technologies Cat #A15905 or a15906), as per the manufacturer's instructions. Briefly, GST-tagged PR LBD, Fluormone tracer, and compound were mixed and incubated for 2 hours at room temperature in the dark. Following incubation, the plates were spun at 3000×g for 30 seconds, then sealed with an optical adhesive cover, and fluorescence polarization was measured using appropriate excitation and emission filters with an EnVision Plate Reader (Perkin Elmer). Compound concentration vs. mP value were plotted in Prism (GraphPad). A four-parameter non-linear regression curve fit was applied to dose-response data to determine the half-maximal inhibitory concentration (IC50) for each test compound.

[6] = tested on: T-Rex 293 cell line SC cells having increased expression of progesterone receptor isoform B protein; test: Cellular growth inhibition assay, T-Rex 293 SC cells exposed to doxycycline (increased progesterone receptor isoform B expression), CellTiter-Glo; type: cell-based; settings: T-Rex 293 SC cells with 10 ng/mL doxycycline (increased PR isoform B), 72 hours
Procedure: (§2) The SC cells were seeded on poly-D-lysine coated, black clear-bottom 384-well plates at 2500/well, in 25 μL Phenol Red Free Dulbecco's Modified Eagle Medium (DMEM) supplemented with 10% w/w charcoal-dextran treated fetal bovine serum (FBS) and 1% w/w pen-strep, with or without 10 ng/mL doxycycline. Pen-Strep is a commercially available mixture of penicillin G and streptomycin, which is used in mammalian cell culture media to prevent bacterial contamination. Phenol Red Free Dulbecco's Modified Eagle Medium (DMEM) supplemented with 10% w/w charcoal-dextran treated fetal bovine serum (FBS) and 1% w/w pen-strep, with or without 10 ng/mL doxycycline is herein referred to as Treatment Medium. Following seeding of cells in the plates, the plates were spun at 300×g for 30 seconds, then equilibrated to room temperature for 30 minutes, and then deposited in a humidified tissue culture incubator maintained at 37° C. with 5% CO2.
(§3) At 24 hours after seeding of the cells, dilutions of test compound were prepared in DMSO and dissolved in Treatment Medium, to achieve a final DMSO concentration of 0.5% w/w, thereby providing the Test Compound Solution. A 25 μL aliquot of the Test Compound Solution was added to cells in the well plates. An equal volume of a solution containing DMSO and Treatment Medium was used as a negative control. Following treatment of cells with Test Compound Solution or said equal volume of a solution containing DMSO and Treatment Medium, the plates were spun at 300×g for 30 seconds, and then left in an incubator for 72 hours.
(§4) At the end of the treatment duration, cell viability was quantified with CellTiter-Glo 2.0 reagent (Promega Cat #G9243). For this purpose, plates were equilibrated to room temperature for 30 minutes, and then 25 μL of CellTiter-Glo 2.0 reagent was added to cells in the plate wells. Plates were then agitated on a shaker for two minutes at 500 rpm and subsequently incubated at room temperature for 10 minutes. Following incubation, the plates were spun at 3000×g for 30 seconds, then sealed with an optical adhesive cover, and luminescence readings were measured with an EnVision Plate Reader (Perkin Elmer).
(§5) Data was normalized using zero luminescence for baseline. A four-parameter non-linear regression curve fit was applied to dose-response data in GraphPad Prism data analysis software to determine the half-maximal growth inhibitory concentration (GI50) for each test compound.

[7] = tested on: T-Rex 293 cell line SC cells lacking increased expression of progesterone receptor isoform B protein; test: Cellular growth inhibition assay, T-Rex 293 SC cells not exposed to doxycycline (no increased progesterone receptor isoform B expression), CellTiter-Glo; type: cell-based; settings: T-Rex 293 SC cells without doxycycline (no increased PR isoform B), 72 hours
Procedure: as §2, §3, §4, §5

Compound	GI50 [1] [nM]	GI50 [2] [nM]	GI50 ([3]; Homo sapiens) [nM]	GI50 ([4]; Homo sapiens) [nM]	pIC50 [5]	GI50 [6] [nM]	GI50 [7] [nM]	GI50 [3] [nM]	GI50 [4] [nM]
CCS(=O)(=O)Nc1ccc(Oc2cccc(N3CC(C4CCN(c5ncc(C(=O)N[C@H]6C(C)(C)[C@H](Oc7ccc(C#N)c(Cl)c7)C6(C)C)cn5)CC4)C3)c2)c(-c2cn(C)c(=O)c3[nH]ccc23)c1 [Compound I-74]	< 500	< 500	< 500	< 500	< 5.60				
CCS(=O)(=O)Nc1ccc(Oc2cccc(N(C)CCNC3CCN(c4ncc(C(=O)N[C@H]5C(C)(C)[C@H](Oc6ccc(C#N)c(Cl)c6)C5(C)C)cn4)CC3)c2)c(-c2cn(C)c(=O)c3[nH]ccc23)c1 [Compound I-83]	< 500	> 3000	< 500	< 500	6.30 to 7.30				
CCS(=O)(=O)c1ccc(Oc2cccc(CCCOC3CC4(C3)CN(c3ncc(C(=O)N[C@H]5C(C)(C)[C@H](Oc6ccc(C#N)c(Cl)c6)C5(C)C)cn3)C4)c2F)c(-c2cn(C)c(=O)c3[nH]ccc23)c1 [Compound I-205]	< 500	< 500	< 500	< 500		< 500	< 500		
CCS(=O)(=O)c1ccc(Oc2cccc(CCCCN3CC4(C3)CN(c3ncc(C(=O)N[C@H]5C(C)(C)[C@H](Oc6ccc(C#N)c(Cl)c6)C5(C)C)cn3)C4)c2F)c(-c2cn(C)c(=O)c3[nH]ccc23)c1 [Compound I-206]	< 500	< 500	< 500	< 500		< 500	< 500		
CCS(=O)(=O)c1ccc(Oc2ccc(OCC3CCN(c4ncc(C(=O)N[C@H]5C(C)(C)[C@H](Oc6ccc(C#N)c(Cl)c6)C5(C)C)cn4)CC3)cc2)c(-c2cn(C)c(=O)c3[nH]ccc23)c1 [Compound I-213]	< 500	< 500				< 500	< 500	< 500	< 500
CCS(=O)(=O)c1ccc(Oc2cccc(CCCOC3CC4(C3)CN(c3ccc(C(=O)N[C@H]5C(C)(C)[C@H](Oc6ccc(C#N)c(Cl)c6)C5(C)C)cn3)C4)c2F)c(-c2cn(C)c(=O)c3[nH]ccc23)c1 [Compound I-215]	< 500	< 500	< 500	< 500	< 5.60				
CN(CCCCc1ccc(Oc2ccc(C(C)(C)O)cc2-c2cn(C)c(=O)c3[nH]ccc23)cc1)c1ncc(C(=O)N[C@H]2C(C)(C)[C@H](Oc3ccc(C#N)c(Cl)c3)C2(C)C)cn1 [Compound I-218]	< 500	1500 to 3000	1500 to 3000	500 to 1500	6.30 to 7.30				
Cn1cc(-c2cc(C(C)(C)O)ccc2Oc2cccc(OCCN3CCC34CN(c3ncc(C(=O)N[C@H]5C(C)(C)[C@H](Oc6ccc(C#N)c(Cl)c6)C5(C)C)cn3)C4)c2F)c2cc[nH]c2c1=O [Compound I-222]	< 500	500 to 1500	< 500	500 to 1500	5.60 to 6.30				
CC(C)N(CCOc1cccc(Oc2ccc(C(C)(C)O)cc2-c2cn(C)c(=O)c3[nH]ccc23)c1F)C1CCN(c2ncc(C(=O)N[C@H]3C(C)(C)[C@H](Oc4ccc(C#N)c(Cl)c4)C3(C)C)cn2)CC1 [Compound I-224]	< 500	< 500	< 500	< 500	6.30 to 7.30				
Cn1cc(-c2cc(C(C)(C)O)ccc2Oc2ccc(F)c(OCCC3CC4(C3)CN(c3ncc(C(=O)N[C@H]5C(C)(C)[C@H](Oc6ccc(C#N)c(Cl)c6)C5(C)C)cn3)C4)c2F)c2cc[nH]c2c1=O [Compound I-225]	< 500	< 500			> 7.30			< 500	< 500
CC(C)N(CCN(C)C1CCN(c2ncc(C(=O)N[C@H]3C(C)(C)[C@H](Oc4ccc(C#N)c(Cl)c4)C3(C)C)cn2)CC1)c1cccc(Oc2ccc(C(C)(C)O)cc2-c2cn(C)c(=O)c3[nH]ccc23)c1F [Compound I-226]	< 500	500 to 1500			> 7.30			500 to 1500	> 3000
Cn1cc(-c2cc(C(C)(C)O)ccc2Oc2cccc(OCCN3CCN(c4ncc5c(n4)CN([C@H]4C(C)(C)[C@H](Oc6ccc(C#N)c(Cl)c6)C4(C)C)C5=O)CC3)c2F)c2cc[nH]c2c1=O [Compound I-227]	< 500	< 500			> 7.30			< 500	< 500
Cn1cc(-c2cc(C(C)(C)O)ccc2Oc2ccc(N3CC(C4CCN(c5ncc(C(=O)N[C@H]6C(C)(C)[C@H](Oc7ccc(C#N)c(Cl)c7)C6(C)C)cn5)CC4)C3)cc2)c2cc[nH]c2c1=O [Compound I-299]	< 500	> 3000				< 500	500 to 1500	< 500	< 500
Cn1cc(-c2cc(C(C)(C)O)ccc2Oc2ccc(N3CC(OC4CN(c5ncc(C(=O)N[C@H]6C(C)(C)[C@H](Oc7ccc(C#N)c(Cl)c7)C6(C)C)cn5)C4)C3)cc2)c2cc[nH]c2c1=O [Compound I-303]	< 500	< 500				< 500	500 to 1500	< 500	< 500
Cn1cc(-c2cc(C(C)(C)O)ccc2Oc2ccc(C3CN(C4CCN(c5ncc(C(=O)N[C@H]6C(C)(C)[C@H](Oc7ccc(C#N)c(Cl)c7)C6(C)C)cn5)CC4)C3)cc2)c2cc[nH]c2c1=O [Compound I-304]	< 500	< 500				< 500	500 to 1500	< 500	< 500
Cn1cc(-c2cc(C(C)(C)O)ccc2Oc2ccc(N3CC(CC4CN(c5cnc(C(=O)N[C@H]6C(C)(C)[C@H](Oc7ccc(C#N)c(Cl)c7)C6(C)C)cn5)C4)C3)cc2)c2cc[nH]c2c1=O [Compound I-317]	< 500	< 500	< 500	< 500		< 500	500 to 1500		
Cn1cc(-c2cc(C(C)(C)O)ccc2Oc2ccc(N3CC(CC4CN(c5ccc(C(=O)N[C@H]6C(C)(C)[C@H](Oc7ccc(C#N)c(Cl)c7)C6(C)C)nc5)C4)C3)cc2)c2cc[nH]c2c1=O [Compound I-322]	< 500	1500 to 3000				< 500	1500 to 3000	500 to 1500	< 500
